Laboratory results from the kinase profiling compilation of Christmann-Franck et al. (2016).

Experiments:
Assay in all cases: KINOMEscan competition binding
AURKA (human) = AURKA (human) (UniProt O14965)
AURKC (human) = AURKC (human) (UniProt Q9UQB9)
CAMK1 (human) = CAMK1 (human) (UniProt Q14012)
CAMK2A (human) = CAMK2A (human) (UniProt Q9UQM7)
CAMK2B (human) = CAMK2B (human) (UniProt Q13554)
CAMK2D (human) = CAMK2D (human) (UniProt Q13557)
CAMK2G (human) = CAMK2G (human) (UniProt Q13555)
CAMKK1 (human) = CAMKK1 (human) (UniProt Q8N5S9)
CDK2 (human) = CDK2 (human) (UniProt P24941)
CDK5 (human) = CDK5 (human) (UniProt Q00535)
CSNK1G1 (human) = CSNK1G1 (human) (UniProt Q9HCP0)
DAPK2 (human) = DAPK2 (human) (UniProt Q9UIK4)
EPHA2 (human) = EPHA2 (human) (UniProt P29317)
EPHA4 (human) = EPHA4 (human) (UniProt P54764)
EPHA7 (human) = EPHA7 (human) (UniProt Q15375)
FGFR1 (human) = FGFR1 (human) (UniProt P11362)
FGFR2 (human) = FGFR2 (human) (UniProt P21802)
FGFR3 (human) = FGFR3 (human) (UniProt P22607)
FGR (human) = FGR (human) (UniProt P09769)
FLT3 (human) = FLT3 (human) (UniProt P36888)
FLT4 (human) = FLT4 (human) (UniProt P35916)
INSR (human) = INSR (human) (UniProt P06213)
[1] = biological target: JAK1 JH1 catalytic (human) (UniProt P23458)
KDR (human) = KDR (human) (UniProt P35968)
KIT (human) = KIT (human) (UniProt P10721)
LIMK1 (human) = LIMK1 (human) (UniProt P53667)
MAP3K5 (human) = MAP3K5 (human) (UniProt Q99683)
MAPK10 (human) = MAPK10 (human) (UniProt P53779)
MAPK11 (human) = MAPK11 (human) (UniProt Q15759)
MAPK12 (human) = MAPK12 (human) (UniProt P53778)
MAPK14 (human) = MAPK14 (human) (UniProt Q16539)
MAPK8 (human) = MAPK8 (human) (UniProt P45983)
MAPK9 (human) = MAPK9 (human) (UniProt P45984)
MKNK2 (human) = MKNK2 (human) (UniProt Q9HBH9)
NEK6 (human) = NEK6 (human) (UniProt Q9HC98)
NEK9 (human) = NEK9 (human) (UniProt Q8TD19)
NTRK1 (human) = NTRK1 (human) (UniProt P04629)
PAK4 (human) = PAK4 (human) (UniProt O96013)
PAK6 (human) = PAK6 (human) (UniProt Q9NQU5)
PAK7 (human) = PAK7 (human) (UniProt Q9P286)
PDGFRB (human) = PDGFRB (human) (UniProt P09619)
PIM1 (human) = PIM1 (human) (UniProt P11309)
PIM2 (human) = PIM2 (human) (UniProt Q9P1W9)
PLK4 (human) = PLK4 (human) (UniProt O00444)
PRKAA1 (human) = PRKAA1 (human) (UniProt Q13131)
PRKACA (human) = PRKACA (human) (UniProt P17612)
PTK6 (human) = PTK6 (human) (UniProt Q13882)
RIPK2 (human) = RIPK2 (human) (UniProt O43353)
RPS6KA3 KD1 (human) = RPS6KA3 KD1 (human) (UniProt P51812)
RPS6KA5 KD1 (human) = RPS6KA5 KD1 (human) (UniProt O75582)
STK16 (human) = STK16 (human) (UniProt O75716)
TTK (human) = TTK (human) (UniProt P33981)

Measured: Kd

Sequence of TTK (human) (P33981 whole entry, looked up): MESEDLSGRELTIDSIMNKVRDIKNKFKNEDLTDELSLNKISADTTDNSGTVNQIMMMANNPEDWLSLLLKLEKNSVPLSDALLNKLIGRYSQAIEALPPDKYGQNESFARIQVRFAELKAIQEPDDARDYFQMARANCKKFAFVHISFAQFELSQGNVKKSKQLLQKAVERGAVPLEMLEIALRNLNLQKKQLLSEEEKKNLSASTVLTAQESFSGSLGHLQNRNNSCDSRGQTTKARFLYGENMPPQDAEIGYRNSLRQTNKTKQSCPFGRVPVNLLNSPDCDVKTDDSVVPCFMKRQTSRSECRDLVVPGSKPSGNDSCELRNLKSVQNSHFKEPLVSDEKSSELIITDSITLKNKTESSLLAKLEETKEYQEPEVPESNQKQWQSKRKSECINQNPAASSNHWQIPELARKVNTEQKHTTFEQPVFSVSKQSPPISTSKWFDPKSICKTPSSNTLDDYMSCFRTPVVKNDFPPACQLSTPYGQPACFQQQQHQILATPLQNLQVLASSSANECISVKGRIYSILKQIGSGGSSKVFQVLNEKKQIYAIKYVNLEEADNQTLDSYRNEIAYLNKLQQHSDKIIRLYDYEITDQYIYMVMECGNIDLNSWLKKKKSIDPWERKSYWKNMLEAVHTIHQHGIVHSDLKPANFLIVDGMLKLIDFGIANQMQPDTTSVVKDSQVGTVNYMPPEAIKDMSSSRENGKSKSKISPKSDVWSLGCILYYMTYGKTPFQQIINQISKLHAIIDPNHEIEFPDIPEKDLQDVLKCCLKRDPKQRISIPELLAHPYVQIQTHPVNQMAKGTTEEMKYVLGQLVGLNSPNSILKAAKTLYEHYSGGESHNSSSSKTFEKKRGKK
Sequence of MKNK2 (human) (Q9HBH9 whole entry, looked up): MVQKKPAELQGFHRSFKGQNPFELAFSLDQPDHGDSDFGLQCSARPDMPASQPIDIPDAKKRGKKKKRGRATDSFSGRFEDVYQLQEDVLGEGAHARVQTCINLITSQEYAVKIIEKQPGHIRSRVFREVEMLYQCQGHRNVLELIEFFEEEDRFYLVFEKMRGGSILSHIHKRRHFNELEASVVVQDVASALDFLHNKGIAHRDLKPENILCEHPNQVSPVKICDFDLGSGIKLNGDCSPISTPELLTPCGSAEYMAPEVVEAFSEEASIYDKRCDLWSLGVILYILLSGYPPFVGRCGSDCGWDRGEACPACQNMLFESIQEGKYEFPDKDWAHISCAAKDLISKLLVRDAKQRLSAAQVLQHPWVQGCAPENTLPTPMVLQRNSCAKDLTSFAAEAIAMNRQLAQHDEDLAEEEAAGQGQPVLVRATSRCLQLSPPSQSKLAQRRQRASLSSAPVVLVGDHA
Sequence of FGR (human) (P09769 whole entry, looked up): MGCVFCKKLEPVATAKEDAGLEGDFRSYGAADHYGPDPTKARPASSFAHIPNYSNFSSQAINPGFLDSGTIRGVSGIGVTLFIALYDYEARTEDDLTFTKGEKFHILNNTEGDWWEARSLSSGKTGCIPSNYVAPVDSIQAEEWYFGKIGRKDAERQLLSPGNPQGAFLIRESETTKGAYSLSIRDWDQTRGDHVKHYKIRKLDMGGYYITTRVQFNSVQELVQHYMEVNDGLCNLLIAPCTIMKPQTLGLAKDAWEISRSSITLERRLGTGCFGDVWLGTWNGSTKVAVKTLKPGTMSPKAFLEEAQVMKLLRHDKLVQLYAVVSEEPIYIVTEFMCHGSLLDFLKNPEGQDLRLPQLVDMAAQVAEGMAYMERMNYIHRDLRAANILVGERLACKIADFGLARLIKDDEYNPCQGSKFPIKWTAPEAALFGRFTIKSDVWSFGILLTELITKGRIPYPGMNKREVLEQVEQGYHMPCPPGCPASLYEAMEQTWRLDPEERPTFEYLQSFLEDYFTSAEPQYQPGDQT
Sequence of AURKC (human) (Q9UQB9 whole entry, looked up): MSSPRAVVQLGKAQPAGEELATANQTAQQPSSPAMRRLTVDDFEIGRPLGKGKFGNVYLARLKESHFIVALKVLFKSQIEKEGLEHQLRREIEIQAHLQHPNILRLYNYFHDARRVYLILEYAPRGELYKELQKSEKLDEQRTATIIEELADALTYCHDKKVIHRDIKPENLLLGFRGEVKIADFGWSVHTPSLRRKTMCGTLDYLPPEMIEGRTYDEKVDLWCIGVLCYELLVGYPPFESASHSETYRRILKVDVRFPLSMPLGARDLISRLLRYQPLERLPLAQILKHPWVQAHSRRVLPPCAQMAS
Sequence of KIT (human) (P10721 whole entry, looked up): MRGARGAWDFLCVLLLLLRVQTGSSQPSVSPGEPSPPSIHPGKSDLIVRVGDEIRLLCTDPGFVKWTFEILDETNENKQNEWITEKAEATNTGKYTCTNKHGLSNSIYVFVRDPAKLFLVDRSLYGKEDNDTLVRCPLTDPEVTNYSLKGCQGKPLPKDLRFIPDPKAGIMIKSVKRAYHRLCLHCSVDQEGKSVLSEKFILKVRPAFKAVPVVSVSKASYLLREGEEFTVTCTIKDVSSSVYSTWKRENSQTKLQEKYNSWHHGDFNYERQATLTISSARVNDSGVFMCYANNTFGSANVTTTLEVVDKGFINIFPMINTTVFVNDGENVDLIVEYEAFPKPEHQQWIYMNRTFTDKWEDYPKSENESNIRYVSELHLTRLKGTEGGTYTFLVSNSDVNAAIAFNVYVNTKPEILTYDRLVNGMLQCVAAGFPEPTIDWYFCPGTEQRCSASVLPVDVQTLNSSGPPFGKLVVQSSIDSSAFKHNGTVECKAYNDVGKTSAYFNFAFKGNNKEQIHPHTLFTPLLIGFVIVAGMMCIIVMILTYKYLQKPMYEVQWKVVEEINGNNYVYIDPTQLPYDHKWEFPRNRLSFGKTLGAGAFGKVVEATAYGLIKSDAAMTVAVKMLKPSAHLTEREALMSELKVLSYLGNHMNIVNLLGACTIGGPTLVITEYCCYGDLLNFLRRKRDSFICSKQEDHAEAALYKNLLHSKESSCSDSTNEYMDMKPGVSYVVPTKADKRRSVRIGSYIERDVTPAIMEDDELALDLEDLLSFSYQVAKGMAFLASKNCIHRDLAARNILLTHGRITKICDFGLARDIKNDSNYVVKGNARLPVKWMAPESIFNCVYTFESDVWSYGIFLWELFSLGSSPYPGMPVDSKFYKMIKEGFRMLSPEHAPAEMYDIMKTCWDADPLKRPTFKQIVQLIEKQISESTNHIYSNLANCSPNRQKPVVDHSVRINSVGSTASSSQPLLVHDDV
Sequence of EPHA7 (human) (Q15375 whole entry, looked up): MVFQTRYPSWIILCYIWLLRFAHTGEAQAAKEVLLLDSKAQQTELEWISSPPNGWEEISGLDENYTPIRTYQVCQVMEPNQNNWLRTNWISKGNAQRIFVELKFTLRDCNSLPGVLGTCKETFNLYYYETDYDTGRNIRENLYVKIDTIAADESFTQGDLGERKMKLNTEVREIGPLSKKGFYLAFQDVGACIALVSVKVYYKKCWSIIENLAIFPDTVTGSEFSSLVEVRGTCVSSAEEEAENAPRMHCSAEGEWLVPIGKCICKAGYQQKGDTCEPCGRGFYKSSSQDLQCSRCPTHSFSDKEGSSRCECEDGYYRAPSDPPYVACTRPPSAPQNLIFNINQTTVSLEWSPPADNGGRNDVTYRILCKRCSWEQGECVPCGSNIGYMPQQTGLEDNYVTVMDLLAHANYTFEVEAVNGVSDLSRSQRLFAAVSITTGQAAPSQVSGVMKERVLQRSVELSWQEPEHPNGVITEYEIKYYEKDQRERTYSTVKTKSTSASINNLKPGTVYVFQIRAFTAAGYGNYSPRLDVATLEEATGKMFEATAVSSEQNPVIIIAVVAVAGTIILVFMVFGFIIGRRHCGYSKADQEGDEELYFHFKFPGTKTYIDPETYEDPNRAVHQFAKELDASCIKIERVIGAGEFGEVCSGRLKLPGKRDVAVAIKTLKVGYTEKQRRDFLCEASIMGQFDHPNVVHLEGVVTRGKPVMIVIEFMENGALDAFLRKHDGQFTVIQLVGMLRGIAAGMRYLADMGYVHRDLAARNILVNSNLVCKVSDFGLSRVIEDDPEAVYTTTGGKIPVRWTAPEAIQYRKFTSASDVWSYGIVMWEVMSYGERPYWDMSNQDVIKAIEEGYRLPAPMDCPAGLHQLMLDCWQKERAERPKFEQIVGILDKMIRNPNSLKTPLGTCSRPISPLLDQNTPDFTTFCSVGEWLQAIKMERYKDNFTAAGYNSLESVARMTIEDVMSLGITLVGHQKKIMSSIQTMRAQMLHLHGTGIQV
Sequence of FGFR3 (human) (P22607 whole entry, looked up): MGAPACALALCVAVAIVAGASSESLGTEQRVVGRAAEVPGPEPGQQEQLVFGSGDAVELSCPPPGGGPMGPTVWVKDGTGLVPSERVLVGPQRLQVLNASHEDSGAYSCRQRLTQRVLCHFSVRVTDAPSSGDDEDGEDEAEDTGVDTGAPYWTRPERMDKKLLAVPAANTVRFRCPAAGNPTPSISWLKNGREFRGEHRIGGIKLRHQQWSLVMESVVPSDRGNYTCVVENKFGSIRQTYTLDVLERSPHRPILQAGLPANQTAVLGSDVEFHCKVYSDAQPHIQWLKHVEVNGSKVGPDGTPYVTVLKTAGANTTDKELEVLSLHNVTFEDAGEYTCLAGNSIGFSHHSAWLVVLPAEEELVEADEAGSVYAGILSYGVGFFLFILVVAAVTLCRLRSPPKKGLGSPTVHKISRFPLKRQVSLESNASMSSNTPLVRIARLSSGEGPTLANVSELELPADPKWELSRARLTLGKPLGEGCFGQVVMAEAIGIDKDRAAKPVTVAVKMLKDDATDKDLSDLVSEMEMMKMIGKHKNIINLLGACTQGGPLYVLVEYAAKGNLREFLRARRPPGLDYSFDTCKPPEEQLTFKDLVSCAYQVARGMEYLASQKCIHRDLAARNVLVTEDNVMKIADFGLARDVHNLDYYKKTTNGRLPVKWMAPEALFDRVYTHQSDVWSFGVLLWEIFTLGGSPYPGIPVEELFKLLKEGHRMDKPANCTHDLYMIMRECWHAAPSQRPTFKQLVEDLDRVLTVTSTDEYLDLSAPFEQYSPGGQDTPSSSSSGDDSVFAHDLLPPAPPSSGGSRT

CCOc1cc2ncc(C#N)c(Nc3ccc(F)c(Cl)c3)c2cc1NC(=O)/C=C/CN(C)C
> 10 µM: all assays above

CS(=O)c1ccc(-c2nc(-c3ccc(F)cc3)c(-c3ccncc3)[nH]2)cc1 (stereo not drawn)
> 10 µM: TTK (human)
